# ChEMBL document CHEMBL4392844 (Bioorg Med Chem, 2019)
# Calls of active or inactive are those of the source. The rule behind the calls is not given here.
# Columns and labels:
# HT-29 [1] = assay: Cytotoxicity against human HT-29 cells assessed as reduction in cell proliferation measured after 72 hrs by MTT assay; format: functional, cell-based; details: HT-29, 72 h
# A549 = assay: Cytotoxicity against human A549 cells assessed as reduction in cell proliferation measured after 72 hrs by MTT assay; format: functional, cell-based; details: A549, 72 h
# HT-29 [2] = assay: Antiproliferative activity against human HT-29 cells assessed as reduction in cell proliferation by IncuCyte live-cell imaging analysis; format: functional, cell-based
# [3] = target: Mast/stem cell growth factor receptor Kit (Homo sapiens, UniProt P10721); assay: Inhibition of c-KIT (unknown origin) using FAM-labelled peptide as substrate measured after 10 mins by mobility shift assay
# [4] = target: T1, Receptor-type tyrosine-protein kinase FLT3 (Homo sapiens, UniProt P36888); assay: Inhibition of FLT3 (unknown origin) using FAM-labelled peptide as substrate measured after 10 mins by mobility shift assay
# T1 sequence (P36888 whole entry): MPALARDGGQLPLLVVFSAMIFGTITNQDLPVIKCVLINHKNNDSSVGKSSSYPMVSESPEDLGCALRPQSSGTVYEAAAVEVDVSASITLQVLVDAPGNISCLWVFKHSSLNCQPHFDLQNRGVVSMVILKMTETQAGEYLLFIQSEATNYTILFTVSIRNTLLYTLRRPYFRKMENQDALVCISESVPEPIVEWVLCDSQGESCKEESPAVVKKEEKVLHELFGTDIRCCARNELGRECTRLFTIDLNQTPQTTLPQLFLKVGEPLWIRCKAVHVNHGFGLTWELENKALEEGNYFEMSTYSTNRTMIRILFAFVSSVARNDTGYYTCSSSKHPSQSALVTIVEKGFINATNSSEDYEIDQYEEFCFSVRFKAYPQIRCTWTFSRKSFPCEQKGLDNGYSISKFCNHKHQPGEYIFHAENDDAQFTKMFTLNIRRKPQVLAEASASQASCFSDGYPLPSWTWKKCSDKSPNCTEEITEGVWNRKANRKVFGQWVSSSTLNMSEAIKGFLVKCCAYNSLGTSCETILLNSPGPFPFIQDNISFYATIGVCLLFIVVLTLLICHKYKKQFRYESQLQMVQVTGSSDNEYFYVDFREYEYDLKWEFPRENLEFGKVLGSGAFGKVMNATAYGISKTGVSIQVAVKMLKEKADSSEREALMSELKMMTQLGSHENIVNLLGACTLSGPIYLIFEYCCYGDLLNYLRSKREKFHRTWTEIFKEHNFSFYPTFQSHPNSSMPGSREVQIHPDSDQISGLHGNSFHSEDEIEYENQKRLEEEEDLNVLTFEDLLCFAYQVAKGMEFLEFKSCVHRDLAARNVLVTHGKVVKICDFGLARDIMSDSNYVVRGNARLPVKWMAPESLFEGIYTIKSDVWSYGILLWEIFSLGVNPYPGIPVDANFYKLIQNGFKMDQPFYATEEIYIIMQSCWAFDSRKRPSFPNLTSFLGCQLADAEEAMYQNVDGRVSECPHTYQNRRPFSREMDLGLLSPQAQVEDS
# HT-29 [5] = assay: Antiproliferative activity against human HT-29 cells assessed as reduction in cell proliferation at 10 ug/ml after 72 hrs by phase contrast microscopy; format: functional, cell-based
# HT-29 [6] = assay: Induction of apoptosis in human HT-29 cells assessed as early apoptotic cells at 5 ug/ml measured after 24 hrs by Annexin V-FITC/propidium iodide staining based FACS analysis (reference value: 4.9%); format: functional
# HT-29 [7] = assay: Antiproliferative activity against human HT-29 cells assessed as reduction in cell proliferation by phase contrast microscopy; format: functional, cell-based
# [8] = target: Proto-oncogene tyrosine-protein kinase Src (Homo sapiens, UniProt P12931); assay: Inhibition of c-SRC (unknown origin) using FAM-labelled peptide as substrate measured after 10 mins by mobility shift assay
# [9] = target: Insulin-like growth factor 1 receptor (Homo sapiens, UniProt P08069); assay: Inhibition of IGF1R (unknown origin) using FAM-labelled peptide as substrate measured after 10 mins by mobility shift assay
# HT-29 [10] = assay: Antimigratory activity against human HT-29 cells assessed as reduction in cell migration at 3.33 ug/ml measured every hour for 48 hrs by IncuCyte real-time cell imaging analysis; format: functional, cell-based
# HT-29 [11] = assay: Induction of apoptosis in human HT-29 cells assessed as early apoptotic cells at 3 ug/ml measured after 24 hrs by Annexin V-FITC/propidium iodide staining based FACS analysis (reference value: 4.9%); format: functional
# [12] = target: Vascular endothelial growth factor receptor 2 (Homo sapiens, UniProt P35968); assay: Inhibition of VEGFR2 (unknown origin) using FAM-labelled peptide as substrate measured after 10 mins by mobility shift assay
# HT-29 [13] = assay: Induction of apoptosis in human HT-29 cells assessed as early apoptotic cells at 0.3 ug/ml measured after 24 hrs by Annexin V-FITC/propidium iodide staining based FACS analysis (reference value: 4.9%); format: functional
# HT-29 [14] = assay: Antiproliferative activity against human HT-29 cells assessed as increase in dead cell population at 1.11 ug/ml measured after 66 hrs by IncuCyte live-cell imaging analysis; format: functional, cell-based
# HT-29 [15] = assay: Antiproliferative activity against human HT-29 cells assessed as increase in dead cell population by IncuCyte live-cell imaging analysis; format: functional, cell-based
# HT-29 [16] = assay: Induction of apoptosis in human HT-29 cells measured after 72 hrs by Annexin V-FITC/propidium iodide staining based FACS analysis; format: functional, cell-based
# HT-29 [17] = assay: Induction of apoptosis in human HT-29 cells assessed as early apoptotic cells at 1 ug/ml measured after 24 hrs by Annexin V-FITC/propidium iodide staining based FACS analysis (reference value: 4.9%); format: functional
# HT-29 [18] = assay: Ratio of test compound effect to cabozantinib effect for antiproliferative activity against human HT-29 cells assessed as increase in dead cell population measured after 14 hrs by IncuCyte live-cell imaging analysis; format: functional
# HT-29 [19] = assay: Antiproliferative activity against human HT-29 cells assessed as increase in dead cell population at 10 ug/ml measured after 14 hrs by IncuCyte live-cell imaging analysis; format: functional, cell-based
# HT-29 [20] = assay: Antimigratory activity against human HT-29 cells assessed as reduction in cell migration at 3.33 ug/ml measured every hour for 72 hrs by IncuCyte real-time cell imaging analysis; format: functional, cell-based
# [21] = target: Epidermal growth factor receptor (Homo sapiens, UniProt P00533); assay: Inhibition of EGFR (unknown origin) using FAM-labelled peptide as substrate measured after 10 mins by mobility shift assay
# HT-29 [22] = assay: Antiproliferative activity against human HT-29 cells assessed as reduction in cell proliferation at 0.37 ug/ml after 72 hrs by phase contrast microscopy; format: functional, cell-based
# HT-29 [23] = assay: Antiproliferative activity against human HT-29 cells assessed as increase in dead cell population at 10 ug/ml measured after 66 hrs by IncuCyte live-cell imaging analysis; format: functional, cell-based
# Chain of Mast/stem cell growth factor receptor Kit (P10721 whole entry): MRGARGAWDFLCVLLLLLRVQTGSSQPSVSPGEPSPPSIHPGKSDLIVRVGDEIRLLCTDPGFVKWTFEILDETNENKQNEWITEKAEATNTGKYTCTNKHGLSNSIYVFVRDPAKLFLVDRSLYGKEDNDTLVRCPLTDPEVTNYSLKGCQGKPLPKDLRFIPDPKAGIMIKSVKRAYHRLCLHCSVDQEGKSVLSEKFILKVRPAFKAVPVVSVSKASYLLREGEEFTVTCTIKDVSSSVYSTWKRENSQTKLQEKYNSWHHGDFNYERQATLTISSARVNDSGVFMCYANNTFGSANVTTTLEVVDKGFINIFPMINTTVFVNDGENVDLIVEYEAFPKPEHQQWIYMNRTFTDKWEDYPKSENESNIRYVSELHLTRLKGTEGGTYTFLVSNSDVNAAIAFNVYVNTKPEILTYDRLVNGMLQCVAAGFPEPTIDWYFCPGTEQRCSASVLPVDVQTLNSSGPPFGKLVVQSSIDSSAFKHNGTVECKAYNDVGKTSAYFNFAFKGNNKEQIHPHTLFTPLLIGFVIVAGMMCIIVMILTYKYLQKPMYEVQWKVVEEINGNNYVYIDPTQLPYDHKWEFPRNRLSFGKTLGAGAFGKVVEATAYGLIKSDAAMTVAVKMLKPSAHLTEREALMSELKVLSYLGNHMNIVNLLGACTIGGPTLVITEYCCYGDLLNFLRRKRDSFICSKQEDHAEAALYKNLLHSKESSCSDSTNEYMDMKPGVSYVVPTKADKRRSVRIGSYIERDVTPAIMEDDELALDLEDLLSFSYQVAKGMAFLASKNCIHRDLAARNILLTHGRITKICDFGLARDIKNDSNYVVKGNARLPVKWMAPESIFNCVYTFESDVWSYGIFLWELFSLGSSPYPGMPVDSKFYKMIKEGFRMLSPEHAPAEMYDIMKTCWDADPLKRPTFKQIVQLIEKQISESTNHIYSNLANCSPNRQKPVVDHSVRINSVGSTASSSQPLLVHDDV
# Chain of Insulin-like growth factor 1 receptor (P08069 31-736 limits assumed): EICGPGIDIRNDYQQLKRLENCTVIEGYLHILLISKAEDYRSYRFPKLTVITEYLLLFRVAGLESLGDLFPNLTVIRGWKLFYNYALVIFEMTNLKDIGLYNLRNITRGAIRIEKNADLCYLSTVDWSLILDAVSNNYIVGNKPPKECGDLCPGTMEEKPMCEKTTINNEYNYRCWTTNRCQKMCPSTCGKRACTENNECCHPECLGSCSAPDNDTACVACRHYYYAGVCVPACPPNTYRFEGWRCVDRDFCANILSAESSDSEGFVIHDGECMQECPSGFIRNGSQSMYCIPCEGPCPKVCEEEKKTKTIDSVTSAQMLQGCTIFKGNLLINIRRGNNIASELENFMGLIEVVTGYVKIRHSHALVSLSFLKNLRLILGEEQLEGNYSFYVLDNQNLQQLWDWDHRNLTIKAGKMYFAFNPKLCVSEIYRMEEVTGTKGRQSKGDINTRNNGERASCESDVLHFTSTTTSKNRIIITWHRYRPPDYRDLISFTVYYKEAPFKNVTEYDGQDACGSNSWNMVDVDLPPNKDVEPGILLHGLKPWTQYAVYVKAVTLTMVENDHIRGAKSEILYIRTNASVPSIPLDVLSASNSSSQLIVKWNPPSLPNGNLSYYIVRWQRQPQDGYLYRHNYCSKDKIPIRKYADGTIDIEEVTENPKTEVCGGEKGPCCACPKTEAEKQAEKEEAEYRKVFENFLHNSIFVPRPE
# Chain of Insulin-like growth factor 1 receptor (P08069 741-1367 limits assumed): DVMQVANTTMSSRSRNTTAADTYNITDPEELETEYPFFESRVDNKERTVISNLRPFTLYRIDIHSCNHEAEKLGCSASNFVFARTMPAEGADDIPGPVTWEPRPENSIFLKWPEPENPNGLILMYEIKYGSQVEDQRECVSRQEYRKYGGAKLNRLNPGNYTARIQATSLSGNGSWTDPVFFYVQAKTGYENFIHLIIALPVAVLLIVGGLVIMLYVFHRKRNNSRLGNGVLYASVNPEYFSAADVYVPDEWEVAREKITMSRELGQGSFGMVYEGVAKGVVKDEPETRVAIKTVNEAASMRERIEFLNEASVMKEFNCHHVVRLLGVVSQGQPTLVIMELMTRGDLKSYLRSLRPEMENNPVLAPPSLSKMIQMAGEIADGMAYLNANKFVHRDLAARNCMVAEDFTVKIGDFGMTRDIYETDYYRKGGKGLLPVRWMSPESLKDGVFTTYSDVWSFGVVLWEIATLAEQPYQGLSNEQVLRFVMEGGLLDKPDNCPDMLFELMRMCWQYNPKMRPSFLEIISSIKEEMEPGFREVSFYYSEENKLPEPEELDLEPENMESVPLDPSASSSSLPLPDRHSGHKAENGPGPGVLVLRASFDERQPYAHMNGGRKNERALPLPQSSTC
# Chain of Epidermal growth factor receptor (P00533 whole entry): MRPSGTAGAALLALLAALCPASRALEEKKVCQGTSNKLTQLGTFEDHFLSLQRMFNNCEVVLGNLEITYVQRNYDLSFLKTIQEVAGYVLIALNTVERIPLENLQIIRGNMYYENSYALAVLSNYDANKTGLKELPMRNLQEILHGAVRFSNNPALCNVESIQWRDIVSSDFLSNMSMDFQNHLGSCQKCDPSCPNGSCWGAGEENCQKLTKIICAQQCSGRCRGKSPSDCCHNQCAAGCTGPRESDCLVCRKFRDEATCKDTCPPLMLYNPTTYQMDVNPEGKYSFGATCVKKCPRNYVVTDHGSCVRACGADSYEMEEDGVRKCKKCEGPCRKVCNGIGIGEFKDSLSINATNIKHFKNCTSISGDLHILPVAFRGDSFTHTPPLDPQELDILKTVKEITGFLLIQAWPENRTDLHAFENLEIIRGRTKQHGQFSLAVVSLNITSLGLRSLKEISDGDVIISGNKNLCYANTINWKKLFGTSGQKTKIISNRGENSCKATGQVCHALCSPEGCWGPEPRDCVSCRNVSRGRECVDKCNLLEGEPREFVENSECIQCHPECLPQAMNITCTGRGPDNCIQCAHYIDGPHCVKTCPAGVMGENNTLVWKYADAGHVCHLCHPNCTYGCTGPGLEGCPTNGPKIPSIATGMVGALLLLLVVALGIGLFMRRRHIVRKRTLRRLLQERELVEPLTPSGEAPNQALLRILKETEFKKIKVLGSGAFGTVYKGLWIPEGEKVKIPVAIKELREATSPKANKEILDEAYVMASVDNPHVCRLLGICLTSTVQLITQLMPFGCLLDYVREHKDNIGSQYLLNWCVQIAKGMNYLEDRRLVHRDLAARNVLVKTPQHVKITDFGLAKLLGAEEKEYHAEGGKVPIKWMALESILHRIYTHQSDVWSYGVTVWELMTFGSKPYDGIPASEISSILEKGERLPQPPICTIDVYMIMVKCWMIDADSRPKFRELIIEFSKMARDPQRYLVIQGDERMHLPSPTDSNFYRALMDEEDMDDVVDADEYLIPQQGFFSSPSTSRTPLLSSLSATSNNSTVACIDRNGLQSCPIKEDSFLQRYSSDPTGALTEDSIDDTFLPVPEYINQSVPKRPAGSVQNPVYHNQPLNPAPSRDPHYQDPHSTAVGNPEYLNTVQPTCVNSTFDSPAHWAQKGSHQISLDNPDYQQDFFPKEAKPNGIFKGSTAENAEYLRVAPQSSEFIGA
# Chain of Vascular endothelial growth factor receptor 2 (P35968 whole entry): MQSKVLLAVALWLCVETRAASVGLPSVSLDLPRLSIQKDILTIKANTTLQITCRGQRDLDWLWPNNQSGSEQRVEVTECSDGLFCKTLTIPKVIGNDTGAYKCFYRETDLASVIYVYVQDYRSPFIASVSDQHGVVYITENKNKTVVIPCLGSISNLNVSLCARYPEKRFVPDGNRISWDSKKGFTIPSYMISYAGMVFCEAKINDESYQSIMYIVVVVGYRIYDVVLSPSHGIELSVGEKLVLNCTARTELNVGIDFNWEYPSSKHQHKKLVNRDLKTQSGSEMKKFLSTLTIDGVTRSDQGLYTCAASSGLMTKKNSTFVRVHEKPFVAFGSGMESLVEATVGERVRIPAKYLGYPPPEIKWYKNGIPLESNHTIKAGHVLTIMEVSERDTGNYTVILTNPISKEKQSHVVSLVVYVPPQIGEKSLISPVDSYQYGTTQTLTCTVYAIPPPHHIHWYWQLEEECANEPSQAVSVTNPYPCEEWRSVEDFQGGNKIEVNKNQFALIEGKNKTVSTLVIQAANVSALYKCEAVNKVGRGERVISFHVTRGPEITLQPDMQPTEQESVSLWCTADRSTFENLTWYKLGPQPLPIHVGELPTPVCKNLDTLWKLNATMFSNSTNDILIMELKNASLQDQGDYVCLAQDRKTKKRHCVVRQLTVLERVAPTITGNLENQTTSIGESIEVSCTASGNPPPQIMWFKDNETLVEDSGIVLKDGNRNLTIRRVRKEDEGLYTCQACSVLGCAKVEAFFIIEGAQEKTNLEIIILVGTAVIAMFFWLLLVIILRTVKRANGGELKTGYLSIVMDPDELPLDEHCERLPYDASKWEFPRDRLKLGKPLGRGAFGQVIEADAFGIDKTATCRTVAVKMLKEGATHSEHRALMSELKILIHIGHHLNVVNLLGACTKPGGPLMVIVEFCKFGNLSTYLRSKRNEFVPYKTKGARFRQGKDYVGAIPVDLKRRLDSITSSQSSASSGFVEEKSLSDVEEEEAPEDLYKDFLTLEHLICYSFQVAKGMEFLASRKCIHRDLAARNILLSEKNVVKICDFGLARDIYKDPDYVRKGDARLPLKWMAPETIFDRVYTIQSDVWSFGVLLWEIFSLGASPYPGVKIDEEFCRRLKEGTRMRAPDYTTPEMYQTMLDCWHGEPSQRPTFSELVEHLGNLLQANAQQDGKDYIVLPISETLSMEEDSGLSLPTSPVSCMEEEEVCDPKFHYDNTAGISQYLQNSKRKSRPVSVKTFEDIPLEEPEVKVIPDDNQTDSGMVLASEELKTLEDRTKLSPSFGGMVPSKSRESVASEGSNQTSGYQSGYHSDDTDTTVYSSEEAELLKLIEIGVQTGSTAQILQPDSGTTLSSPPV
Structure (SMILES),IC50 (HT-29 [1]) [µM],IC50 (A549) [µM],also measured
COc1cc2c(Oc3ccc(C4SCC(=O)N4NC(=O)Nc4ccc(F)cc4F)cc3)ccnc2cc1OCCCN1CCOCC1 (stereo unspecified),2.3,6,–
CCN1CCN(CCCOc2cc3nccc(Oc4ccc(C5SCC(=O)N5NC(=O)Nc5ccc(F)cc5F)cc4F)c3cc2OC)CC1 (stereo unspecified),0.32,1,–
COc1cc2c(Oc3ccc(C4SCC(=O)N4NC(=O)Nc4ccccc4)cc3)ccnc2cc1OCCCN1CCOCC1 (stereo unspecified),5.2,8.7,–
COc1cc2c(Oc3ccc(C4SCC(=O)N4NC(=O)Nc4ccc(F)cc4F)cc3F)ccnc2cc1OCCCN1CCN(C)CC1 (stereo unspecified),0.11,0.65,Activity (HT-29 [2]): Dose-dependent effect; IC50 [3]: 0.352 µM; IC50 [4]: 0.0086 µM; Activity (HT-29 [5]): Active; Activity (HT-29 [6]): 65.5%; Activity (HT-29 [7]): Dose-dependent effect; IC50 [8]: 0.383 µM; IC50 [9]: 6.66 µM; Activity (HT-29 [10]): Active; Activity (HT-29 [11]): 69.4%; IC50 [12]: 0.0187 µM; Activity (HT-29 [13]): 56.6%; Activity (HT-29 [14]): Active; Activity (HT-29 [15]): Dose-dependent effect; Activity (HT-29 [16]): Dose-dependent effect; Activity (HT-29 [17]): 62%; Ratio (HT-29 [18]): >10; Activity (HT-29 [19]): Active; Activity (HT-29 [20]): Active; IC50 [21]: 0.4 µM
COc1cc2c(Oc3ccc(C4SCC(=O)N4NC(=O)Nc4ccccc4F)cc3)ccnc2cc1OCCCN1CCOCC1 (stereo unspecified),–,7,–
COc1cc2c(Oc3ccc(C4SCC(=O)N4NC(=O)Nc4ccc(F)c(F)c4F)cc3)ccnc2cc1OCCCN1CCOCC1 (stereo unspecified),4.4,5.5,–
COc1cc2c(Oc3ccc(C4SCC(=O)N4NC(=O)Nc4ccc(Cl)cc4)cc3)ccnc2cc1OCCCN1CCOCC1 (stereo unspecified),6.6,6.7,–
COc1cc2c(Oc3ccc(C4SCC(=O)N4NC(=O)Nc4ccccc4Cl)cc3)ccnc2cc1OCCCN1CCOCC1 (stereo unspecified),6.5,8.5,–
COc1cc2c(Oc3ccc(C4SCC(=O)N4NC(=O)Nc4ccc(F)cc4F)cc3F)ccnc2cc1OCCCN1CCCN(C)CC1 (stereo unspecified),0.18,0.71,–
COc1cc2c(Oc3ccc(C4SCC(=O)N4NC(=O)Nc4ccc(F)cc4F)cc3Cl)ccnc2cc1OCCCN1CCOCC1 (stereo unspecified),2.4,6.7,–
COc1cc2nccc(Oc3ccc(NC(=O)C4(C(=O)Nc5ccc(F)cc5)CC4)cc3)c2cc1OC [CABOZANTINIB],–,8.5,Activity (HT-29 [22]): Active; Activity (HT-29 [23]): Active; Activity (HT-29 [10]): Active; Activity (HT-29 [20]): Active
COc1cc2c(Oc3ccc(C4SCC(=O)N4NC(=O)Nc4cccc(Cl)c4)cc3)ccnc2cc1OCCCN1CCOCC1 (stereo unspecified),7.7,8.9,–
COc1cc2c(Oc3ccc(C4SCC(=O)N4NC(=O)Nc4cc(F)cc(F)c4)cc3)ccnc2cc1OCCCN1CCOCC1 (stereo unspecified),4.9,6.1,–
COc1cc2c(Oc3ccc(C4SCC(=O)N4NC(=O)Nc4ccc(F)cc4F)c(F)c3)ccnc2cc1OCCCN1CCOCC1 (stereo unspecified),1.3,4.6,–
COc1cc2c(Oc3ccc(C4SCC(=O)N4NC(=O)Nc4ccc(F)cc4)cc3)ccnc2cc1OCCCN1CCOCC1 (stereo unspecified),4.8,4.9,–
COc1cc2c(Oc3ccc(C4SCC(=O)N4NC(=O)Nc4ccc(F)cc4F)cc3F)ccnc2cc1OCCCN1CCOCC1 (stereo unspecified),0.86,2.1,–
COc1cc2c(Oc3ccc(C4SCC(=O)N4NC(=O)Nc4ccc(F)cc4F)c(Cl)c3)ccnc2cc1OCCCN1CCOCC1 (stereo unspecified),2.8,6.1,–
